Results: publication PMC6792352, “Limited Chemical Structural Diversity Found to Modulate Thyroid Hormone Receptor in the Tox21 Chemical Library” (Environmental Health Perspectives, 2019)
Counter-ions that a name gives are not always drawn.

Test: in vitro
Conditions: rat, gh3-tre-luc cells

Row | SMILES | CC50 at 24 h (AC50 (uM) modified / 1000) | other results
1 | CC(C)CC(N(C)C)C1(c2ccc(Cl)cc2)CCC1 (stereo not shown) [Sibutramine hydrochloride] | – | CC50 at 24 h (AC50 (uM) modified / 1000, Tox21_110001=Tox21_111448, viability, 1 nM T3 present, 24 h): > 50 µM
2 | CCCCCCCCC(=O)OCC [Ethyl nonanoate] | > 90 µM | –
3 | Nc1nc(N)nc(Cl)n1 [2-Chloro-4,6-diamino-1,3,5-triazine] | – | CC50 at 24 h (AC50 (uM) modified / 1000, Tox21_110001=Tox21_301105, viability, 1 nM T3 present, 24 h): > 90 µM
4 | C=C(C)C(=O)OCC(CC)CCCC (stereo not shown) [2-Ethylhexyl methacrylate] | > 90 µM | –
5 | CC(C)CC(=O)C1C(=O)c2ccccc2C1=O [2-Isovaleryl-1,3-indanedione] | > 90 µM | –
6 | CCOCCn1c(N2CCCN(C)CC2)nc2ccccc21 [Emedastine difumarate] | > 50 µM | –
7 | CCOC(=O)COc1ccc2c(C)c(CCN(CC)CC)c(=O)oc2c1 [Chromonar hydrochloride] | > 50 µM | –
8 | Cn1c(=O)c2c(ncn2CC2OCCO2)n(C)c1=O [Doxofylline] | > 50 µM | –
9 | CC[C@H](C)[C@H]1O[C@]2(C=C[C@@H]1C)C[C@@H]1C[C@@H](C/C=C(\C)[C@@H](O[C@H]3C[C@H](OC)[C@@H](O[C@H]4C[C@H](OC)[C@@H](NC)[C@H](C)O4)[C@H](C)O3)[C@@H](C)/C=C/C=C3\CO[C@@H]4[C@H](O)C(C)=C[C@@H](C(=O)O1)[C@]34O)O2 [Emamectin benzoate] | – | CC50 at 24 h (AC50 (uM) modified / 1000, Tox21_110001=Tox21_300787, viability, 1 nM T3 present, 24 h): 1.42 µM
10 | CCN(N=O)C(N)=O [1-Ethyl-1-nitrosourea] | – | CC50 at 24 h (AC50 (uM) modified / 1000, Tox21_110001=Tox21_202151, viability, 1 nM T3 present, 24 h): > 90 µM; CC50 at 24 h (AC50 (uM) modified / 1000, Tox21_110001=Tox21_302749, viability, 1 nM T3 present, 24 h): > 60 µM
11 | NC(CS)C(=O)O (racemic) [DL-Cysteine] | > 50 µM | –
12 | CC[N+](C)(CC)CCOC(=O)C(O)(c1ccccc1)c1ccccc1 [Benzactyzine methobromide] | > 50 µM | –
13 | CC(C)NCC(O)c1ccc2ccccc2c1 (stereo not shown) [Pronethalol] | > 50 µM | –
14 | Cc1cc(O)ccc1O [Methylhydroquinone] | 14.8 µM | –
15 | Cc1ncc(C[n+]2csc(CCO[P@](=O)(O)OP(=O)(O)O)c2C)c(N)n1 [Cocarboxylase chloride] | > 50 µM | –
16 | CC1(C)NC(=O)N(c2ccc([N+](=O)[O-])c(C(F)(F)F)c2)C1=O [Nilutamide] | > 90 µM | –
17 | Oc1cc2ccccc2c2ccccc12 [9-Phenanthrol] | 6.81 µM | –
18 | C[C@]12CCC(=O)C(O)=C1CC[C@@H]1[C@@H]2CC[C@]2(C)C(=O)CC[C@@H]12 [4-Hydroxyandrostenedione] | – | CC50 at 24 h (AC50 (uM) modified / 1000, Tox21_110001=Tox21_112111, viability, 1 nM T3 present, 24 h): > 50 µM; CC50 at 24 h (AC50 (uM) modified / 1000, Tox21_110001=Tox21_302286, viability, 1 nM T3 present, 24 h): > 90 µM
19 | O=C(CO)[C@@H](O)[C@@H](O)[C@H](O)CO [D-Tagatose] | > 50 µM | –
20 | CC(C)c1ccccc1C(C)C [Diisopropylbenzene] | 88.9 µM | –
21 | Oc1ccc2c(c1)OCO2 [Sesamol] | > 90 µM | –
22 | CCCC(=O)O [Butanoic acid] | > 100 µM | –
23 | c1ccc2c(CC3=NCCN3)cccc2c1 [Naphazoline hydrochloride] | > 50 µM | –
24 | Cc1cccc(C)c1NC(=O)C(C)N (stereo not shown) [Tocainide hydrochloride] | > 20 µM | –

Row | SMILES | CC50 at 24 h (AC50 (uM) modified / 1000) | other results
25 | O=CC(=O)c1ccccc1 [Phenylglyoxal] | > 90 µM | –
26 | COc1ccnc(C[S+]([O-])c2nc3ccc(OC(F)F)cc3[nH]2)c1OC (stereo not shown) [Pantoprazole sodium] | > 90 µM | –
27 | CC(C)Nc1cccnc1N1CCN(C(=O)c2cc3cc(NS(C)(=O)=O)ccc3[nH]2)CC1 [Delavirdine] | > 50 µM | –
28 | C1CCN(CN2CCCCC2)CC1 [Dipiperidinomethane] | > 90 µM | –
29 | CC1=NN(c2ccccc2)C(=O)C1 [1-Phenyl-3-methyl-5-pyrazolone] | > 90 µM | –
30 | OCC(c1ccc(Cl)cc1)c1ccc(Cl)cc1 [2,2-Bis(4-chlorophenyl)ethanol] | – | CC50 at 24 h (AC50 (uM) modified / 1000, Tox21_110001=Tox21_300725, viability, 1 nM T3 present, 24 h): > 90 µM
31 | CCOC1Oc2ccc(OS(C)(=O)=O)cc2C1(C)C (stereo not shown) [Ethofumesate] | > 90 µM | –
32 | CN(C)CCc1c[nH]c2ccc(CS(=O)(=O)N3CCCC3)cc12 [Almotriptan] | > 50 µM | –
33 | CN[C@]1(c2ccccc2Cl)CCCCC1=O [(S)-Ketamine] | > 50 µM | –
34 | O=C(NO)C1(NS(=O)(=O)c2ccc(Oc3ccc(F)cc3)cc2)CCOCC1 [CP-544439] | > 90 µM | –
35 | COCCOCCOC [Diethylene glycol dimethyl ether] | > 90 µM | –
36 | CCC/C=C/C=O [(2E)-2-Hexenal] | > 90 µM | –
37 | CC(Cc1ccc(C(C)(C)C)cc1)CN1C[C@@H](C)O[C@@H](C)C1 (stereo partly drawn) [(2R,6S)-Fenpropimorph] | > 90 µM | –
38 | CCCC[P+](C)(CCCC)CCCC [Tributylmethylphosphonium methyl sulfate] | > 90 µM | –
39 | Cc1ccc(S(=O)(=O)O)cc1C [Sodium xylenesulfonate] | > 90 µM | –
40 | c1cc2ccc3cccc4ccc(c1)c2c34 [Pyrene] | – | CC50 at 24 h (AC50 (uM) modified / 1000, Tox21_110001=Tox21_400063, viability, 1 nM T3 present, 24 h): > 100 µM
41 | COc1ccc(CCN(C)CCCC(C#N)(c2ccc(OC)c(OC)c2)C(C)C)cc1OC (stereo not shown) [Verapamil hydrochloride] | 24.5 µM | –
42 | COC(=O)N/N=C/c1c[n+]([O-])c2ccccc2[n+]1[O-] [Carbadox] | > 50 µM | –
43 | Brc1c2ccccc2cc2ccccc12 [9-Bromoanthracene] | > 90 µM | –
44 | N#CSCSc1nc2ccccc2s1 [2-(Thiocyanomethylthio)benzothiazole] | 3.06 µM | –
45 | COc1cc(NS(=O)(=O)c2ccc(N)cc2)nc(OC)n1 [Sulfadimethoxine] | > 20 µM | –
46 | Cc1cc(C(C#N)c2ccc(Cl)cc2)c(Cl)cc1NC(=O)c1cc(I)cc(I)c1O (stereo not shown) [Closantel] | 25 µM | –
47 | c1cc2c(c(N3CCNCC3)c1)OCCO2 [Eltoprazine hydrochloride] | – | CC50 at 24 h (AC50 (uM) modified / 1000, Tox21_110001=Tox21_111742, viability, 1 nM T3 present, 24 h): > 50 µM
48 | CCCCCC[C@@H](O)C/C=C\CCCCCCCC(=O)OCC(O)CO (stereo partly shown) [Glyceryl monoricinoleate] | > 90 µM | –

Row | SMILES | CC50 at 24 h (AC50 (uM) modified / 1000) | other results
49 | CCCOCCOCCO [2-(2-Propoxyethoxy)ethanol] | > 90 µM | –
50 | C=CCc1ccccc1OCC(O)CNC(C)C (stereo not shown) [Alprenolol] | > 50 µM | –
51 | CC(C)(C)c1ccc(OC(=O)c2ccccc2O)cc1 [4-tert-Butylphenyl salicylate] | > 90 µM | –
52 | O=C1OC(=O)c2c(Cl)c(Cl)c(Cl)c(Cl)c21 [Tetrachlorophthalic anhydride] | > 90 µM | –
53 | NS(=O)(=O)c1cc2c(cc1Cl)NC(Cc1ccccc1)NS2(=O)=O (stereo not shown) [Benzylhydrochlorothiazide] | > 50 µM | –
54 | c1ccc(CNc2ncnc3nc[nH]c23)cc1 [N-Benzyladenine] | > 90 µM | –
55 | N[C@H](CCC(=O)O)C(=O)O [D-Glutamic acid] | > 50 µM | –
56 | O=C(O)CCCCCCCCC(=O)O [Decanedioic acid] | > 90 µM | –
57 | CCCCC(=O)N(C)C [N,N-Dimethylpentanamide] | > 90 µM | –
58 | CC(C)(C)NCC(O)c1ccc(O)c(CO)n1 (stereo not shown) [Pirbuterol hydrochloride] | > 50 µM | –
59 | CCN(CC)CCOc1ccc(C(O)(Cc2ccc(Cl)cc2)c2ccc(C)cc2)cc1 (stereo not shown) [Triparanol] | 8.76 µM | –
60 | CCCN(CCC)CCc1c[nH]c2ccccc12 [N,N-Dipropyltryptamine hydrochloride] | – | CC50 at 24 h (AC50 (uM) modified / 1000, Tox21_110001=Tox21_112893, viability, 1 nM T3 present, 24 h): 39.8 µM
61 | O=C(Oc1ccccc1)c1ccccc1O [Phenyl salicylate] | > 50 µM | –
62 | CCCCCC[C@@H](O)C/C=C\CCCCCCCC(=O)O [(9Z,12R)-12-Hydroxyoctadec-9-enoic acid] | 80.8 µM | –
63 | NNc1ccc(C(=O)O)cc1 [4-Hydrazinobenzoic acid] | > 90 µM | –
64 | Cc1ccc(C)c(C)c1 [1,2,4-Trimethylbenzene] | > 90 µM | –
65 | CCOc1ccccc1OCC [1,2-Diethoxybenzene] | > 90 µM | –
66 | O=C1OC(c2ccc(O)c(S(=O)(=O)O)c2)(c2ccc(O)c(S(=O)(=O)O)c2)c2c(Br)c(Br)c(Br)c(Br)c21 [Sulfobromophthalein] | > 50 µM | –
67 | CCOC(=O)COc1ccc2c(C)c(CCN(CC)CC)c(=O)oc2c1Cl [Cloricromen hydrochloride] | 31.2 µM | –
68 | COc1cc(C(=S)N2CCOCC2)cc(OC)c1OC [Tritiozine] | > 50 µM | –
69 | O=C(O)/C=C/c1c[nH]cn1 [Urocanic acid] | > 90 µM | –
70 | Oc1ccc(O)c2c(O)cccc12 [1,4,5-Trihydroxynaphthalene] | > 90 µM | –
71 | CC1=CC[C@@H](C(C)(C)O)CC1 [alpha-Terpineol] | > 90 µM | –
